pIC50: −log10 of the molar value.
Test system: HeLa
Experiment: Cytotoxicity against human HeLa cells after 48 hrs by MTT assay
Type: functional, cell-based

Cn1c2ccccc2c2cc(-c3ccccc3)oc(=O)c21
pIC50: 5.72

CCn1c2ccccc2c2cc(-c3ccccc3)oc(=O)c21
pIC50: 4.95

CCCCn1c2ccccc2c2cc(-c3ccccc3)oc(=O)c21
pIC50: 5.49

COc1ccc2c(c1)c1cc(-c3ccccc3)oc(=O)c1n2C
pIC50: 6.66

CCn1c2ccc(OC)cc2c2cc(-c3ccccc3)oc(=O)c21
pIC50: 5.92

CCCCn1c2ccc(OC)cc2c2cc(-c3ccccc3)oc(=O)c21
pIC50: 5.30

COc1ccc2c(c1)c1cc(-c3ccccc3)oc(=O)c1n2Cc1ccccc1
pIC50: 5.17

CCCCc1cc2c([nH]c3ccccc32)c(=O)o1
pIC50: 5.59

O=c1oc(-c2ccccc2)cc2c1[nH]c1ccccc12
pIC50: 4.72

COc1ccc2[nH]c3c(=O)oc(-c4ccccc4)cc3c2c1
pIC50: 6.48

From ChEMBL document CHEMBL1800031, “Gold(III) chloride catalyzed regioselective synthesis of pyrano[3,4-b]indol-1(9H)-ones and evaluation of anticancer potential towards human cervix adenocarcinoma” (Bioorg Med Chem Lett, 2011)
